This is an account of results in patent publication US12319672B2, “Alpha-D-galactopyranoside derivatives” (Idorsia Pharmaceuticals Ltd, priority 2019, dated 2025).

The target in one assay is human Gal-1 (hGal-1). Put plainly: Competitive binding assay: binding of biotinylated hGal-1 to microplate-adsorbed asialofetuin (ASF). The following applies: Activities on hGal-1; mean values of several measurements. On the procedure:
(§1) Evaluation of Compound Inhibitory Activity (IC50)
(§2) The inhibitory activity of compounds is determined in competitive binding assays. This spectrophotometric assay measures the binding of biotinylated human Gal-3 (hGal-3) or human Gal-1 (hGal-1), respectively, to a microplate-adsorbed glycoprotein, asialofetuin (ASF) (Proc Natl Acad Sci USA. 2013 Mar. 26; 110(13):5052-7.). Alternatively, and preferably, a human Gal-1 version in which all six cysteines are substituted by serines may be used.
(§3) Briefly, compounds are serially diluted in DMSO (working dilutions). ASF-coated 384 well plates are supplemented with 22.8 μL/well of biotinylated hGal-3 or hGal-1 in assay buffer (i.e. 300-1000 ng/mL biotinylated hGal-3 or hGal-1) to which 1.2 μL of compound working dilutions are added and mixed.
(§4) Plates are incubated for 3 hours at 4° C., then washed with cold assay buffer (3×50 uL), incubated for 1 hour with 25 μL/well of a streptavidin-peroxidase solution (diluted in assay buffer to 80 ng/mL) at 4° C., followed by further washing steps with assay buffer (3×50 uL). Finally, 25 μL/well of ABTS substrate is added.
(§5) The calculated IC50 values may fluctuate depending on the daily assay performance. Fluctuations of this kind are known to those skilled in the art. IC50 values from several measurements are given as mean values.

The target in a further assay is human Gal-3 (hGal-3) (Homo sapiens (Human), UniProt P17931). Put plainly: Competitive binding assay: binding of biotinylated hGal-3 to microplate-adsorbed asialofetuin (ASF). The following applies: Activity on hGal-3; mean values of several measurements. The protocol: as §1, §2, §3, §4, §5
human Gal-3 (hGal-3), sequence (P17931 whole entry): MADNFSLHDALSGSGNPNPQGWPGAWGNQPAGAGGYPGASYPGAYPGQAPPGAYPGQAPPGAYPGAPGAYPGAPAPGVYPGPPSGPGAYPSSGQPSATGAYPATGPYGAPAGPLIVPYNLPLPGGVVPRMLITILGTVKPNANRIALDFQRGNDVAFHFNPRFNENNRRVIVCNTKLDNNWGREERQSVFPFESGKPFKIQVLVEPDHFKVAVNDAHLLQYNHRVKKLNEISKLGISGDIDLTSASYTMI

human Gal-1 (hGal-1), sequence (P09382 2-135 limits assumed): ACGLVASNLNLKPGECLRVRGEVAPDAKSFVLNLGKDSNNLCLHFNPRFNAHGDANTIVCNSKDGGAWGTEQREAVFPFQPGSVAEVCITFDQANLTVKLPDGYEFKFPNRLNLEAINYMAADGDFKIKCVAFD

For `CO[C@@H]1[C@@H](n2cc(-c3cc(F)c(F)c(F)c3)nn2)[C@@H](O)[C@@H](CO)O[C@@H]1CC1CC(C2CCNCC2)=NO1` (mixture of isomers) [Example 3.04, (2R,3R,4S,5R,6R)-2-(hydroxymethyl)-5-methoxy-6-(((RS)-3-(piperidin-4-yl)-4,5-dihydroisoxazol-5-yl)methyl)-4-(4-(3,4,5-trifluorophenyl)-1H-1,2,3-triazol-1-yl)tetrahydro-2H-pyran-3-ol], the figures for the IC50 at human Gal-1 (hGal-1) and at human Gal-3 (hGal-3) were 5650 nM and 550 nM, respectively.
As for `CO[C@@H]1[C@@H](n2cc(-c3cc(F)c(F)c(F)c3)nn2)[C@@H](O)[C@@H](CO)O[C@@H]1Cn1cc(C2(O)CCCCC2)nn1` [Example 4.47, (2R,3R,4S,5R,6R)-6-((4-(1-hydroxycyclohexyl)-1H-1,2,3-triazol-1-yl)methyl)-2-(hydroxymethyl)-5-methoxy-4-(4-(3,4,5-trifluorophenyl)-1H-1,2,3-triazol-1-yl)tetrahydro-2H-pyran-3-ol], the IC50 (in general, the midpoint of a concentration-inhibition curve) turned out to be 3060 nM at human Gal-1 (hGal-1) and 330 nM on human Gal-3 (hGal-3).
The matching figures for `CO[C@@H]1[C@@H](n2cc(-c3cc(F)c(F)c(F)c3)nn2)[C@@H](O)[C@@H](CO)O[C@@H]1Cc1cc(C2CCN(C(=O)OC(C)(C)C)CC2)on1` [Ex 1.50]: 570 nM and 63 nM.
With `CO[C@@H]1[C@@H](n2cc(-c3cc(F)c(F)c(F)c3)nn2)[C@@H](O)[C@@H](CO)O[C@@H]1CC1CN(C2CCN(C(=O)N(C)C)CC2)C(=O)O1` (mixture of isomers) [Example 5.11, 4-((RS)-5-(((2R,3R,4S,5R,6R)-5-hydroxy-6-(hydroxymethyl)-3-methoxy-4-(4-(3,4,5-trifluorophenyl)-1H-1,2,3-triazol-1-yl)tetrahydro-2H-pyran-2-yl)methyl)-2-oxooxazolidin-3-yl)-N,N-dimethylpiperidine-1-carboxamide], the IC50 on human Gal-1 (hGal-1) came to 1500 nM; at human Gal-3 (hGal-3) it was 260 nM.
On the same counts, the results for `CO[C@@H]1[C@@H](n2cc(-c3cc(F)c(F)c(F)c3)nn2)[C@@H](O)[C@@H](CO)O[C@@H]1Cc1cc(C2CCN(C(=O)OC(C)(C)C)CC2)sn1` [Example 6.02, tert-butyl 4-(3-(((2R,3R,4S,5R,6R)-5-hydroxy-6-(hydroxymethyl)-3-methoxy-4-(4-(3,4,5-trifluorophenyl)-1H-1,2,3-triazol-1-yl)tetrahydro-2H-pyran-2-yl)methyl)isothiazol-5-yl)piperidine-1-carboxylate] are 1970 nM and 110 nM.
The matching figures for `COc1ccc(C2=NOC(C[C@H]3O[C@H](CO)[C@H](O)[C@H](n4cc(-c5cc(F)c(F)c(F)c5)nn4)[C@H]3OC)C2)cc1` (stereo partly shown) [Ex 1.294]: 14000 nM and 1540 nM.
Consider `CO[C@@H]1[C@@H](n2cc(-c3cc(F)c(F)c(F)c3)nn2)[C@@H](O)[C@@H](CO)O[C@@H]1C[C@H]1CC([C@@H]2CCN(C)C(=O)C2)=NO1` [Ex 1.89], for which the IC50 on human Gal-1 (hGal-1) was 4110 nM; on human Gal-3 (hGal-3), 990 nM.
Consider `CO[C@@H]1[C@@H](n2cc(-c3ccc(F)c(F)c3F)nn2)[C@@H](O)[C@@H](CO)O[C@@H]1Cc1cc(C(C)(CO)CCl)no1` (stereo partly shown) [Ex 1.262], for which the IC50 on human Gal-1 (hGal-1) is 330 nM; on human Gal-3 (hGal-3) it was 70 nM.
Regarding `CO[C@@H]1[C@@H](n2cc(-c3ccc(Cl)c(F)c3F)nn2)[C@@H](O)[C@@H](CO)O[C@@H]1Cc1cc(C2CCOCC2)on1` [Ex 1.181], the 50% inhibitory concentration (IC50) on human Gal-1 (hGal-1) stood at 8040 nM; on human Gal-3 (hGal-3), 56 nM.
On the same counts, the results for `CC(=O)O[C@@H]1[C@@H](n2cc(-c3cc(F)c(F)c(F)c3)nn2)[C@@H](O)[C@@H](CO)O[C@@H]1Cc1cc(C2CCN(C(=O)OC(C)(C)C)CC2)on1` [Ex 1.49] are 2450 nM and 78 nM.
The matching figures for `OC[C@H]1O[C@H](CC2CC(c3ccncc3)=NO2)[C@H](O)[C@@H](n2cc(-c3cc(F)c(F)c(F)c3)nn2)[C@H]1O` (stereo partly shown) [Ex 1.16]: 6620 nM and 430 nM.
On the same counts, the results for `COc1ccc(C2=NOC(C[C@H]3O[C@H](CO)[C@H](O)[C@H](n4cc(-c5cc(F)c(F)c(F)c5)nn4)[C@H]3O)C2)cc1O` (stereo partly shown) [Ex 1.25] are 4970 nM and 670 nM.
For `CO[C@@H]1[C@@H](n2cc(-c3cc(F)c(F)c(F)c3)nn2)[C@@H](O)[C@@H](CO)O[C@@H]1Cc1cc(-c2nc(Br)cs2)on1` [Ex 1.127], the values for the 50% inhibitory concentration (IC50) on human Gal-1 (hGal-1) and at human Gal-3 (hGal-3) were 9840 nM and 300 nM, respectively.
Consider `CC(=O)O[C@@H]1[C@@H](n2cc(-c3cc(F)c(F)c(F)c3)nn2)[C@@H](O)[C@@H](CO)O[C@@H]1Cc1cc(C2CCN(C(C)=O)CC2)on1` [Example 3.22, (2R,3R,4S,5R,6R)-2-((5-(1-acetylpiperidin-4-yl)isoxazol-3-yl)methyl)-5-hydroxy-6-(hydroxymethyl)-4-(4-(3,4,5-trifluorophenyl)-1H-1,2,3-triazol-1-yl)tetrahydro-2H-pyran-3-yl acetate], for which the IC50 on human Gal-1 (hGal-1) worked out at 1870 nM; on human Gal-3 (hGal-3), 28 nM.
With `CO[C@@H]1[C@@H](n2cc(-c3cc(F)c(F)c(F)c3)nn2)[C@@H](O)[C@@H](CO)O[C@@H]1Cc1cc(C2CCN(S(C)(=O)=O)CC2)on1` [Example 3.45, (2R,3R,4S,5R,6R)-2-(hydroxymethyl)-5-methoxy-6-((5-(1-(methylsulfonyl)piperidin-4-yl)isoxazol-3-yl)methyl)-4-(4-(3,4,5-trifluorophenyl)-1H-1,2,3-triazol-1-yl)tetrahydro-2H-pyran-3-ol], the IC50 at human Gal-1 (hGal-1) is 490 nM; at human Gal-3 (hGal-3) it was 37 nM.
Take `CO[C@@H]1[C@@H](n2cc(-c3cc(F)c(F)c(F)c3)nn2)[C@@H](O)[C@@H](CO)O[C@@H]1C[C@@H]1CN(C2CCN(C(=O)C(C)C)CC2)C(=O)O1` [Example 5.13, (R)-5-(((2R,3R,4S,5R,6R)-5-hydroxy-6-(hydroxymethyl)-3-methoxy-4-(4-(3,4,5-trifluorophenyl)-1H-1,2,3-triazol-1-yl)tetrahydro-2H-pyran-2-yl)methyl)-3-(1-isobutyrylpiperidin-4-yl)oxazolidin-2-one]: the values for the IC50 at human Gal-1 (hGal-1) and on human Gal-3 (hGal-3) were 4730 nM and 590 nM, respectively.
The matching figures for `COc1cc(OC)c(-c2cn([C@H]3[C@@H](O)[C@@H](CO)O[C@H](CC4CC(C5CCN(C(=O)OC(C)(C)C)CC5)=NO4)[C@@H]3O)nn2)cc1F` (stereo partly shown) [Ex 1.111]: 11500 nM and 1660 nM.
On the same counts, the results for `CO[C@@H]1[C@@H](n2cc(-c3cc(F)c(F)c(F)c3)nn2)[C@@H](O)[C@@H](CO)O[C@@H]1Cn1cc(-c2ccc3[nH]c(=O)oc3c2)nn1` [Example 4.02, 6-(1-(((2R,3R,4S,5R,6R)-5-hydroxy-6-(hydroxymethyl)-3-methoxy-4-(4-(3,4,5-trifluorophenyl)-1H-1,2,3-triazol-1-yl)tetrahydro-2H-pyran-2-yl)methyl)-1H-1,2,3-triazol-4-yl)benzo[d]oxazol-2(3H)-one] are 20300 nM and 690 nM.
The matching figures for `CO[C@@H]1[C@@H](n2cc(-c3cc(F)c(F)c(F)c3)nn2)[C@@H](O)[C@@H](CO)O[C@@H]1Cc1cc(C23CCC(NC(=O)OC(C)(C)C)(CC2)CC3)on1` [Ex 1.130]: 18100 nM and 260 nM.
As for `CCOC(=O)N1CCC(c2cc(C[C@H]3O[C@H](CO)[C@H](O)[C@H](n4cc(-c5ccc(C)c(F)c5F)nn4)[C@H]3OC)no2)CC1` [Ex 1.151], the results for the IC50 at human Gal-1 (hGal-1) and at human Gal-3 (hGal-3) were 1020 nM and 19 nM, respectively.
For the compound `CO[C@@H]1[C@@H](n2cc(-c3cc(F)c(F)c(F)c3)nn2)[C@@H](O)[C@@H](CO)O[C@@H]1Cc1cc(C2CCN(C)CC2)on1` [Example 3.39, (2R,3R,4S,5R,6R)-2-(hydroxymethyl)-5-methoxy-6-((5-(1-methylpiperidin-4-yl)isoxazol-3-yl)methyl)-4-(4-(3,4,5-trifluorophenyl)-1H-1,2,3-triazol-1-yl)tetrahydro-2H-pyran-3-ol], the half-maximal inhibitory concentration (IC50) on human Gal-1 (hGal-1) was determined as 5090 nM; at human Gal-3 (hGal-3), 260 nM.
The matching figures for `C#Cc1ccc(-c2cn([C@H]3[C@@H](O)[C@@H](CO)O[C@H](Cc4cc(C(C)(C)C)on4)[C@@H]3OC)nn2)c(F)c1F` [Example 2.47, (2R,3R,4S,5R,6R)-6-((5-(tert-butyl)isoxazol-3-yl)methyl)-4-(4-(4-ethynyl-2,3-difluorophenyl)-1H-1,2,3-triazol-1-yl)-2-(hydroxymethyl)-5-methoxytetrahydro-2H-pyran-3-ol]: 4400 nM and 230 nM.
For the compound `CO[C@@H]1[C@@H](n2cc(-c3ccc(C)c(F)c3F)nn2)[C@@H](O)[C@@H](CO)O[C@@H]1Cc1cc(C2(C#N)CCCC2)on1` [Ex 1.278], the IC50 worked out at 6700 nM on human Gal-1 (hGal-1) and 93 nM on human Gal-3 (hGal-3).
The matching figures for `CO[C@@H]1[C@@H](n2cc(-c3ccc(Cl)c(F)c3F)nn2)[C@@H](O)[C@@H](CO)O[C@@H]1Cc1cc(C2(C)CC2)no1` [Ex 1.259]: 620 nM and 33 nM.
At human Gal-3 (hGal-3), `CO[C@@H]1[C@@H](n2cc(-c3cc(F)c(F)c(F)c3)nn2)[C@@H](O)[C@@H](CO)O[C@@H]1Cc1cc(C2CCN(C(=O)CC(F)(F)F)CC2)on1` [Example 3.51, 3,3,3-trifluoro-1-(4-(3-(((2R,3R,4S,5R,6R)-5-hydroxy-6-(hydroxymethyl)-3-methoxy-4-(4-(3,4,5-trifluorophenyl)-1H-1,2,3-triazol-1-yl)tetrahydro-2H-pyran-2-yl)methyl)isoxazol-5-yl)piperidin-1-yl)propan-1-one] came in with an IC50 of 71 nM.
